US20120231994A1, “ANTAGONISM OF HUMAN FORMYL PEPTIDE RECEPTOR FOR TREATMENT OF DISEASE” (NIKAN PHARMACEUTICALS, LLC, priority 2009, published 2012)

Assays:
Sprague-Dawley Rats = assay: Multiple Oral Gavage Toxicity Study of Cyclosporin H in Sprague-Dawley Rats with Toxicokinetics, hematology; format: in vivo; conditions: animals to which CsH had been administered (see Table 1)
[1] = tested on: calcineurin mediated signaling; conditions: cited from earlier work
hFPR = molecular target: T1, hFPR (Homo sapiens, UniProt P21462); assay: radionuclide binding competition assay using fMLF peptide as internal standard
T1 sequence (P21462 1-350): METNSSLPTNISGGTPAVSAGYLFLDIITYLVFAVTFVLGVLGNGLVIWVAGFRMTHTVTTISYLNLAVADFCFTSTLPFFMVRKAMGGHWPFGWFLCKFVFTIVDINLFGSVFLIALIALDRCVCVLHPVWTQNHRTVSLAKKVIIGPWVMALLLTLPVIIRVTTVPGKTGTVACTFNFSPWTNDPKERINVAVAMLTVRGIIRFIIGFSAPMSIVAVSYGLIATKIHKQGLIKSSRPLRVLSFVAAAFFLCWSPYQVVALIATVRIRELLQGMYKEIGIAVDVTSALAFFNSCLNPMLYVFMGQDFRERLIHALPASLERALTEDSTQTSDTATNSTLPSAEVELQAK
Excerpt: Provided herein is the use of formyl peptide receptor antagonists in the therapy of diseases or disorders involving inappropriate, exaggerated, or prolonged neutrophil response (i.e. recruitment and/or activation). […] Thus the cyclosporins of this invention include dihydroCsH, as well as compounds of Formula I that maintain FPR inhibitory activity.

IC50 (hFPR) [nM]	SMILES	circulating eosinophils (Sprague-Dawley Rats)	effect on calcineurin mediated signaling [1]
–	C/C=C/C[C@@H](C)[C@@H](O)[C@H]1C(=O)N[C@@H](CC)C(=O)N(C)CC(=O)N(C)[C@@H](CC(C)C)C(=O)N[C@@H](C(C)C)C(=O)N(C)[C@@H](CC(C)C)C(=O)N[C@@H](C)C(=O)N[C@H](C)C(=O)N(C)[C@@H](CC(C)C)C(=O)N(C)[C@@H](CC(C)C)C(=O)N(C)[C@H](C(C)C)C(=O)N1C [CsH, Cyclosporine H]	significant decrease	no effect
7.99	CCCC[C@@H](C)[C@@H](O)[C@H]1C(=O)N[C@@H](CC)C(=O)N(C)CC(=O)N(C)[C@@H](CC(C)C)C(=O)N[C@@H](C(C)C)C(=O)N(C)[C@@H](CC(C)C)C(=O)N[C@@H](C)C(=O)N[C@H](C)C(=O)N(C)[C@@H](CC(C)C)C(=O)N(C)[C@@H](CC(C)C)C(=O)N(C)[C@H](C(C)C)C(=O)N1C [dihydroCsH, Dihydrocyclosporin H]	–	–
